Assay results from patent publication US20250003994A1, “DEVICE AND METHOD FOR TREATING TISSUE OXYGEN DEFICIENT CONDITIONS” (IP SCIENCE LIMITED, priority 2021, published 2025).

Each molecule was assayed on clinically healthy volunteers (assay: Tissue oxygen saturation (StO2) by near-infrared spectroscopy with stagnant ischemia, Example 2.4). Conditions: 0 w (prior the trial), area under hyperemic curve post occlusion.
Format: in vivo, human
Method: (§1) For this study […] clinically healthy volunteers were recruited (age 35-57 years old), 30 male and 34 female). The subjects had not taken any medication or dietary supplements prior to the experiment. The volunteers were randomized and divided into 7 groups of 8 persons each. The participants were given a one-month supply of a particular nutraceutical or pharmaceutical. […] The daily dose for each product was taken in 1 capsule with the main meal of the day. The blood and StO2 were analyzed prior the trial and after (4 weeks). OCCL was analyzed as described above.
Thenar eminence and forearm muscles of the patients were used as a tissue target for the assessment of StO2, or combined level of oxygenated hemoglobin and myoglobin. StO2 was assessed by continuous wavelength near-infrared spectroscopy, NIRS, with wide-gap second-derivative (In Spectra, Hutchinson Technology, MN, USA), as known in the art. The measurements were taken at different time points. The recording was initiated after 15 min of rest in a supine position, before occlusion of the brachial artery. It was then continued during stagnant ischemia induced by rapidly inflating a cuff to 50 mm Hg above systolic BP. The ischemia lasted for 3 min, and the recording period lasted for an additional 5 min, until StO2 was stabilized
The area under the hyperemic curve, AUC, of the recorded signal for the settling time in the post occlusion period was then calculated in AUC mm, or % O2/min. All body and vascular parameters were recorded in the morning between 8 and 10 a.m.

Structure (SMILES) | StO2 [AUC mm]
CC1=C(/C=C/C(C)=C/C=C/C(C)=C/C=C/C=C(C)/C=C/C=C(C)/C=C/C2=C(C)C(=O)[C@@H](O)CC2(C)C)C(C)(C)C[C@H](O)C1=O [Astaxanthin] | 77 ± 0.74
COC1=C(OC)C(=O)C(C/C=C(\C)CC/C=C(\C)CC/C=C(\C)CC/C=C(\C)CC/C=C(\C)CC/C=C(\C)CC/C=C(\C)CC/C=C(\C)CC/C=C(\C)CCC=C(C)C)=C(C)C1=O [Coenzyme Q10] | 75.0 ± 7.4
CC/C=C\C/C=C\C/C=C\C/C=C\C/C=C\C/C=C\CCC(=O)O [DHA Omega 3] | 74 ± 0.71
CC(C)=CCC/C(C)=C/C=C/C(C)=C/C=C/C(C)=C/C=C/C=C(C)/C=C/C=C(C)/C=C/C=C(\C)CCC=C(C)C [Lycopene] | 75 ± 0.73
CCC(C)(C)C(=O)O[C@H]1C[C@@H](C)C=C2C=C[C@H](C)[C@H](CC[C@@H]3C[C@@H](O)CC(=O)O3)[C@H]21 [Simvastatin, reference compound] | 70 ± 0.72
C=C1CC[C@H](O)C/C1=C/C=C1\CCC[C@]2(C)[C@@H]([C@H](C)CCCC(C)C)CC[C@@H]12 [Vitamin D3] | 66.8 ± 6.0

Same assay, conditions: 4 w, daily dose in 1 capsule with main meal, area under hyperemic curve post occlusion

Structure (SMILES) | StO2 [AUC mm]
CC1=C(/C=C/C(C)=C/C=C/C(C)=C/C=C/C=C(C)/C=C/C=C(C)/C=C/C2=C(C)C(=O)[C@@H](O)CC2(C)C)C(C)(C)C[C@H](O)C1=O [Astaxanthin] | 87 ± 0.84
COC1=C(OC)C(=O)C(C/C=C(\C)CC/C=C(\C)CC/C=C(\C)CC/C=C(\C)CC/C=C(\C)CC/C=C(\C)CC/C=C(\C)CC/C=C(\C)CC/C=C(\C)CCC=C(C)C)=C(C)C1=O [Coenzyme Q10] | 84.0 ± 8.5
CC/C=C\C/C=C\C/C=C\C/C=C\C/C=C\C/C=C\CCC(=O)O [DHA Omega 3] | 76 ± 0.92
CC(C)=CCC/C(C)=C/C=C/C(C)=C/C=C/C(C)=C/C=C/C=C(C)/C=C/C=C(C)/C=C/C=C(\C)CCC=C(C)C [Lycopene] | 85 ± 0.61
CCC(C)(C)C(=O)O[C@H]1C[C@@H](C)C=C2C=C[C@H](C)[C@H](CC[C@@H]3C[C@@H](O)CC(=O)O3)[C@H]21 [Simvastatin, reference compound] | 73 ± 0.81
C=C1CC[C@H](O)C/C1=C/C=C1\CCC[C@]2(C)[C@@H]([C@H](C)CCCC(C)C)CC[C@@H]12 [Vitamin D3] | 71.2 ± 6.8

Same assay, conditions: 4 weeks daily intake

Structure (SMILES) | Effect of regular intake on StO2 / peripheral tissue oxygenation (in words)
COC1=C(OC)C(=O)C(C/C=C(\C)CC/C=C(\C)CC/C=C(\C)CC/C=C(\C)CC/C=C(\C)CC/C=C(\C)CC/C=C(\C)CC/C=C(\C)CC/C=C(\C)CCC=C(C)C)=C(C)C1=O [Coenzyme Q10] | significant improvement of peripheral tissue oxygenation
CC/C=C\C/C=C\C/C=C\C/C=C\C/C=C\C/C=C\CCC(=O)O [DHA Omega 3] | did not affect
C=C1CC[C@H](O)C/C1=C/C=C1\CCC[C@]2(C)[C@@H]([C@H](C)CCCC(C)C)CC[C@@H]12 [Vitamin D3] | did not affect

These molecules were tested on clinically healthy volunteers (assay: Oxygen carrying capacity of plasma lipoproteins (OCCL) by catalymetry assay, one-month intake, Example 2.4). Conditions: 0 w (prior the trial).
Format: in vivo, human
Method: 6 healthy volunteers (HV, 42-61 years old) and 4 CAD patients, eligible for the treadmill test (age 45-59 years old) were recruited for this study. Apart from assessing changes their electrocardiogram (ECG), pulse and blood pressure, samples and level of oxygen carrying capacity of plasma lipoproteins, OCCL, from venous blood was analyzed prior to the test and within 3-4 minutes afterward. The measurement was conducted using a catalymetry assay. In short, 10 μl of citrate plasma was added to 0.98 ml cuvette of 0.05 M phosphate buffer with 0.1 mM sodium ethylenediamine tetraacetic acid (EDTA-Na), containing 10^−6 M phenazine methosulphate and 10^−4 M nitro blue tetrazolium chloride (NBT). The reaction was initiated by adding 10 μl of 10^−4 M NADH.
The difference in absorption at λ=560 nm between starting point and after 60 seconds was measured by spectroscopy. This difference was used to measure oxygen-depended reduction of NBT. The results of this reaction were compared with the control reaction where instead of plasma 10 μl of the reaction buffer was added. The difference in the reduction of NBT with the analyzed sample and the control was used to calculate the amount of O2 in added plasma lipoproteins.
In this section the effects of regular intake of validated bioactive nutraceuticals on blood OCCL and tissue oxygen saturation (StO2) was evaluated.
as §1

Structure (SMILES) | OCCL
CC1=C(/C=C/C(C)=C/C=C/C(C)=C/C=C/C=C(C)/C=C/C=C(C)/C=C/C2=C(C)C(=O)[C@@H](O)CC2(C)C)C(C)(C)C[C@H](O)C1=O [Astaxanthin] | 539 ± 52 ΔE at λ = 560 nm × 10^3
COC1=C(OC)C(=O)C(C/C=C(\C)CC/C=C(\C)CC/C=C(\C)CC/C=C(\C)CC/C=C(\C)CC/C=C(\C)CC/C=C(\C)CC/C=C(\C)CC/C=C(\C)CCC=C(C)C)=C(C)C1=O [Coenzyme Q10] | 505 ± 66 ΔE at λ = 560 nm × 10^3
CC/C=C\C/C=C\C/C=C\C/C=C\C/C=C\C/C=C\CCC(=O)O [DHA Omega 3] | 626 ± 34 ΔE at λ = 560 nm × 10^3
CC(C)=CCC/C(C)=C/C=C/C(C)=C/C=C/C(C)=C/C=C/C=C(C)/C=C/C=C(C)/C=C/C=C(\C)CCC=C(C)C [Lycopene] | 648 ± 41 ΔE at λ = 560 nm × 10^3
CCC(C)(C)C(=O)O[C@H]1C[C@@H](C)C=C2C=C[C@H](C)[C@H](CC[C@@H]3C[C@@H](O)CC(=O)O3)[C@H]21 [Simvastatin, reference compound] | 451 ± 51 ΔE at λ = 560 nm × 10^3
C=C1CC[C@H](O)C/C1=C/C=C1\CCC[C@]2(C)[C@@H]([C@H](C)CCCC(C)C)CC[C@@H]12 [Vitamin D3] | 412 ± 48 ΔE at λ = 560 nm × 10^3

Same assay, conditions: 4 w, daily dose in 1 capsule with main meal

Structure (SMILES) | OCCL
CC1=C(/C=C/C(C)=C/C=C/C(C)=C/C=C/C=C(C)/C=C/C=C(C)/C=C/C2=C(C)C(=O)[C@@H](O)CC2(C)C)C(C)(C)C[C@H](O)C1=O [Astaxanthin] | 770 ± 57 ΔE at λ = 560 nm × 10^3
COC1=C(OC)C(=O)C(C/C=C(\C)CC/C=C(\C)CC/C=C(\C)CC/C=C(\C)CC/C=C(\C)CC/C=C(\C)CC/C=C(\C)CC/C=C(\C)CC/C=C(\C)CCC=C(C)C)=C(C)C1=O [Coenzyme Q10] | 593 ± 64 ΔE at λ = 560 nm × 10^3
CC/C=C\C/C=C\C/C=C\C/C=C\C/C=C\C/C=C\CCC(=O)O [DHA Omega 3] | 639 ± 42 ΔE at λ = 560 nm × 10^3
CC(C)=CCC/C(C)=C/C=C/C(C)=C/C=C/C(C)=C/C=C/C=C(C)/C=C/C=C(C)/C=C/C=C(\C)CCC=C(C)C [Lycopene] | 786 ± 39 ΔE at λ = 560 nm × 10^3
CCC(C)(C)C(=O)O[C@H]1C[C@@H](C)C=C2C=C[C@H](C)[C@H](CC[C@@H]3C[C@@H](O)CC(=O)O3)[C@H]21 [Simvastatin, reference compound] | 504 ± 53 ΔE at λ = 560 nm × 10^3
C=C1CC[C@H](O)C/C1=C/C=C1\CCC[C@]2(C)[C@@H]([C@H](C)CCCC(C)C)CC[C@@H]12 [Vitamin D3] | 443 ± 51 ΔE at λ = 560 nm × 10^3

Same assay, conditions: 4 weeks daily intake

Structure (SMILES) | Effect of regular intake on OCCL (in words)
COC1=C(OC)C(=O)C(C/C=C(\C)CC/C=C(\C)CC/C=C(\C)CC/C=C(\C)CC/C=C(\C)CC/C=C(\C)CC/C=C(\C)CC/C=C(\C)CC/C=C(\C)CCC=C(C)C)=C(C)C1=O [Coenzyme Q10] | increase in OCCL
CC/C=C\C/C=C\C/C=C\C/C=C\C/C=C\C/C=C\CCC(=O)O [DHA Omega 3] | did not affect
C=C1CC[C@H](O)C/C1=C/C=C1\CCC[C@]2(C)[C@@H]([C@H](C)CCCC(C)C)CC[C@@H]12 [Vitamin D3] | did not affect

The molecules below were run on clinically healthy volunteers (assay: Blood LDL concentration, one-month intake, Example 2.4). Conditions: 0 w (prior the trial), 8 per group.
Format: in vivo, human
From the text: Since oxygen solubility is higher in lipids than in aqueous media, it was interesting to examine a possible link between changes in OCCL and lipoprotein concentration in blood.
as §1

Structure (SMILES) | LDL [mg/dL]
CC1=C(/C=C/C(C)=C/C=C/C(C)=C/C=C/C=C(C)/C=C/C=C(C)/C=C/C2=C(C)C(=O)[C@@H](O)CC2(C)C)C(C)(C)C[C@H](O)C1=O [Astaxanthin] | 153 ± 7.3
COC1=C(OC)C(=O)C(C/C=C(\C)CC/C=C(\C)CC/C=C(\C)CC/C=C(\C)CC/C=C(\C)CC/C=C(\C)CC/C=C(\C)CC/C=C(\C)CC/C=C(\C)CCC=C(C)C)=C(C)C1=O [Coenzyme Q10] | 143 ± 5.7
CC/C=C\C/C=C\C/C=C\C/C=C\C/C=C\C/C=C\CCC(=O)O [DHA Omega 3] | 155 ± 9.2
CC(C)=CCC/C(C)=C/C=C/C(C)=C/C=C/C(C)=C/C=C/C=C(C)/C=C/C=C(C)/C=C/C=C(\C)CCC=C(C)C [Lycopene] | 156 ± 6.1
C=C1CC[C@H](O)C/C1=C/C=C1\CCC[C@]2(C)[C@@H]([C@H](C)CCCC(C)C)CC[C@@H]12 [Vitamin D3] | 156 ± 8.4

Same assay, conditions: 4 w, daily dose in 1 capsule with main meal

Structure (SMILES) | LDL [mg/dL]
CC1=C(/C=C/C(C)=C/C=C/C(C)=C/C=C/C=C(C)/C=C/C=C(C)/C=C/C2=C(C)C(=O)[C@@H](O)CC2(C)C)C(C)(C)C[C@H](O)C1=O [Astaxanthin] | 151 ± 6.2
COC1=C(OC)C(=O)C(C/C=C(\C)CC/C=C(\C)CC/C=C(\C)CC/C=C(\C)CC/C=C(\C)CC/C=C(\C)CC/C=C(\C)CC/C=C(\C)CC/C=C(\C)CCC=C(C)C)=C(C)C1=O [Coenzyme Q10] | 140 ± 4.2
CC/C=C\C/C=C\C/C=C\C/C=C\C/C=C\C/C=C\CCC(=O)O [DHA Omega 3] | 154 ± 7.5
CC(C)=CCC/C(C)=C/C=C/C(C)=C/C=C/C(C)=C/C=C/C=C(C)/C=C/C=C(C)/C=C/C=C(\C)CCC=C(C)C [Lycopene] | 135 ± 7.0
C=C1CC[C@H](O)C/C1=C/C=C1\CCC[C@]2(C)[C@@H]([C@H](C)CCCC(C)C)CC[C@@H]12 [Vitamin D3] | 144 ± 5.9
